Test results taken from patent US20260201008A1, “SECRETIN-DERIVED GLP1R SELECTIVE AGONISTS” (GUBRA A/S, priority 2023, published 2026).
Square brackets hold non-standard residues; d marks the D form. Peptide text beside a SMILES is read from it. Aib = CC(C)(N)C(=O)O

Tests used:
GLP1R = GLP1R (Homo sapiens, UniProt P43220); assay: hGLP1R potency, cAMP accumulation in CHO-K1 cells stably overexpressing hGLP1R; type: cell-based; set-up: host or cells: CHO-K1; settings: for Selectivity: SCTR EC50/GLP1R EC50 ratio; for EC50: read-out: pEC50 hGLPR1 (converted)
Sequence of GLP1R (P43220 24-463): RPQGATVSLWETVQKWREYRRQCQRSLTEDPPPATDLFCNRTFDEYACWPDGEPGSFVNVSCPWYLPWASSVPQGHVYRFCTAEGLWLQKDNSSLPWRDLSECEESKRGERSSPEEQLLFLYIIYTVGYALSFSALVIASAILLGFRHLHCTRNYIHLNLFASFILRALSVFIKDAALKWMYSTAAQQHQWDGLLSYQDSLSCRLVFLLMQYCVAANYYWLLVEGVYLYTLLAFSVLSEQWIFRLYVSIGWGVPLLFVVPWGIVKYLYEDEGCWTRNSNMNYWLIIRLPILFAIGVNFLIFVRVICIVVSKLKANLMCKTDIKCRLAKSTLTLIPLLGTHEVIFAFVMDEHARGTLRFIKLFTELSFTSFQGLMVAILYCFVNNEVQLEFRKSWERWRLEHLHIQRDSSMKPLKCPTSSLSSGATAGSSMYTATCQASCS
Text: (§1) Crude library peptides are screened in 10-fold serial dilutions of 5 concentrations, n=1 time. Tip change is done for the first two serial dilutions. Compound starting concentration (top) will be adjusted throughout the study if needed.
(§2) Purified peptides are screened in 3-fold serial dilutions of 11 concentrations, n=2 times. Tip change is done for all serial dilutions. Compound starting concentration (top) will be adjusted throughout the study. If the top concentration is adjusted or a 5-fold difference in calculated EC50 values is observed, n is increased by 1. EC50 values were calculated by nonlinear regression using sigmoid concentration-response with variable slope.
(§3) A CHO-K1 cell line stably overexpressing the hGLP1R was obtained from Euroscreen (FAST-0145L), expanded, aliquoted and frozen. An aliquot was thawed and plated in DPBS with 0.05% casein and 0.5 mM IBMX as 2000 cells/well in a 384-well format. The cells were then immediately stimulated for 30 min at room temperature with graded doses of test compound using human GLP-1(7-36) (synthesized at Gubra) as a positive control. cAMP accumulation was measured using a Cisbio assay for Gs coupled receptors (cat. no. 62AM4PEC), where the assay reagents were added as per the manufacturer's instructions and time-resolved fluorescence energy transfer recorded after one hour on a CLARIOstar (BMG Labtech) plate reader.

SCTR = SCTR (Homo sapiens, UniProt P47872); assay: hSCTR potency, cAMP accumulation in CHO-K1 cells stably overexpressing hSCTR; type: cell-based; set-up: alternatively Euroscreen ES-712-AF; FAST-0161L; host or cells: CHO-K1; settings: Table 4, position X12 variants of GUB06-046; read-out: pEC50 hSCTR (converted)
Sequence of SCTR (P47872 23-440): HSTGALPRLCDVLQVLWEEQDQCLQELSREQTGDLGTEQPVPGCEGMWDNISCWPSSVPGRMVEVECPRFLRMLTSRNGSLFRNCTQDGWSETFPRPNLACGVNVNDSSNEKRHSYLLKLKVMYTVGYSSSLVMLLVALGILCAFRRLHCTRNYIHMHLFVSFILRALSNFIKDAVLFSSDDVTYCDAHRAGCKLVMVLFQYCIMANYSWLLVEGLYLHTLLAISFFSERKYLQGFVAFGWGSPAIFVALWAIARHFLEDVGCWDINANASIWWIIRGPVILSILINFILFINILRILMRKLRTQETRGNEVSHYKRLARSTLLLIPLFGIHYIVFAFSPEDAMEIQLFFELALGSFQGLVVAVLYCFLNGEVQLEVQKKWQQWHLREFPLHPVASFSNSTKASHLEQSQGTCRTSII
Text: as §1, §2
as §3, with “Frozen division arrested CHO-K1 cells stably overexpressing the hSCTR were obtained from PerkinElmer (ES-712-AF). Alternatively, a CHO-K1” for “A CHO-K1”, “the hSCTR” for “the hGLP1R”, “Euroscreen (FAST-0161L),” for “Euroscreen (FAST-0145L),”, “human secretin” for “human GLP-1(7-36)”

[1] = Table 4, position X12 variants of GUB06-046
[2] = Table 3, position X^10 variants of GUB06-046

Row | Structure (SMILES) | Selectivity (GLP1R; [1]) | EC50 (GLP1R; [1]) [nM] | EC50 (SCTR) [nM] | Selectivity (GLP1R; [2])
1 | CC[C@H](C)[C@H](NC(=O)[C@H](Cc1ccccc1)NC(=O)[C@H](CCCNC(=N)N)NC(=O)[C@H](CCC(N)=O)NC(=O)[C@H](CC(C)C)NC(=O)[C@H](C)NC(=O)[C@H](C)NC(=O)CNC(=O)[C@H](CCC(=O)O)NC(=O)[C@H](CC(C)C)NC(=O)[C@H](CC(C)C)NC(=O)[C@H](Cc1ccc(O)cc1)NC(=O)[C@H](CO)NC(=O)[C@H](CC(C)C)NC(=O)[C@H](CC(=O)O)NC(=O)[C@H](CO)NC(=O)[C@@H](NC(=O)[C@H](Cc1ccccc1)NC(=O)[C@@H](NC(=O)CNC(=O)[C@H](CCC(=O)O)NC(=O)C(C)(C)NC(=O)[C@@H](N)Cc1c[nH]cn1)[C@@H](C)O)[C@@H](C)O)C(=O)N[C@@H](CCC(N)=O)C(=O)N[C@@H](Cc1c[nH]c2ccccc12)C(=O)N[C@@H](CC(C)C)C(=O)N[C@H](C(N)=O)C(C)C [compound 229] (H-H[Aib]EGTFTSDLSYLLEGAALQRFIQWLV-NH2) | 699 | 0.0158 | 10 | 
2 | CC[C@H](C)[C@H](NC(=O)[C@H](Cc1ccccc1)NC(=O)[C@H](CCCNC(=N)N)NC(=O)[C@H](CCC(N)=O)NC(=O)[C@H](CC(C)C)NC(=O)[C@H](C)NC(=O)[C@H](C)NC(=O)CNC(=O)[C@H](CCC(=O)O)NC(=O)[C@H](CC(C)C)NC(=O)[C@H](CC(C)C)NC(=O)[C@@H](NC(=O)[C@H](CO)NC(=O)[C@H](CC(C)C)NC(=O)[C@H](CC(=O)O)NC(=O)[C@H](CO)NC(=O)[C@@H](NC(=O)[C@H](Cc1ccccc1)NC(=O)[C@@H](NC(=O)CNC(=O)[C@H](CCC(=O)O)NC(=O)C(C)(C)NC(=O)[C@@H](N)Cc1c[nH]cn1)[C@@H](C)O)[C@@H](C)O)C(C)C)C(=O)N[C@@H](CCC(N)=O)C(=O)N[C@@H](Cc1c[nH]c2ccccc12)C(=O)N[C@@H](CC(C)C)C(=O)N[C@H](C(N)=O)C(C)C [compound 227] (H-H[Aib]EGTFTSDLSVLLEGAALQRFIQWLV-NH2) | 43 | 0.0316 | 1.26 | 
3 | CC[C@H](C)[C@H](NC(=O)[C@H](Cc1ccccc1)NC(=O)[C@H](CCCNC(=N)N)NC(=O)[C@H](CCC(N)=O)NC(=O)[C@H](CC(C)C)NC(=O)[C@H](C)NC(=O)[C@H](C)NC(=O)CNC(=O)[C@H](CCC(=O)O)NC(=O)[C@H](CC(C)C)NC(=O)[C@H](CC(C)C)NC(=O)[C@H](CCCNC(=N)N)NC(=O)[C@H](CO)NC(=O)[C@@H](NC(=O)[C@H](CC(=O)O)NC(=O)[C@H](CO)NC(=O)[C@@H](NC(=O)[C@H](Cc1ccccc1)NC(=O)[C@@H](NC(=O)CNC(=O)[C@H](CCC(=O)O)NC(=O)C(C)(C)NC(=O)[C@@H](N)Cc1c[nH]cn1)[C@@H](C)O)[C@@H](C)O)[C@@H](C)CC)C(=O)N[C@@H](CCC(N)=O)C(=O)N[C@@H](Cc1c[nH]c2ccccc12)C(=O)N[C@@H](CC(C)C)C(=O)N[C@H](C(N)=O)C(C)C [compound 218] (H-H[Aib]EGTFTSDISRLLEGAALQRFIQWLV-NH2) |  |  |  | 459
4 | CC[C@H](C)[C@H](NC(=O)[C@H](Cc1ccccc1)NC(=O)[C@H](CCCNC(=N)N)NC(=O)[C@H](CCC(N)=O)NC(=O)[C@H](CC(C)C)NC(=O)[C@H](C)NC(=O)[C@H](C)NC(=O)CNC(=O)[C@H](CCC(=O)O)NC(=O)[C@H](CC(C)C)NC(=O)[C@H](CC(C)C)NC(=O)[C@H](CCCNC(=N)N)NC(=O)[C@H](CO)NC(=O)[C@H](Cc1c[nH]c2ccccc12)NC(=O)[C@H](CC(=O)O)NC(=O)[C@H](CO)NC(=O)[C@@H](NC(=O)[C@H](Cc1ccccc1)NC(=O)[C@@H](NC(=O)CNC(=O)[C@H](CCC(=O)O)NC(=O)C(C)(C)NC(=O)[C@@H](N)Cc1c[nH]cn1)[C@@H](C)O)[C@@H](C)O)C(=O)N[C@@H](CCC(N)=O)C(=O)N[C@@H](Cc1c[nH]c2ccccc12)C(=O)N[C@@H](CC(C)C)C(=O)N[C@H](C(N)=O)C(C)C [compound 219] (H-H[Aib]EGTFTSDWSRLLEGAALQRFIQWLV-NH2) |  |  |  | 478
5 | CC[C@H](C)[C@H](NC(=O)[C@H](Cc1ccccc1)NC(=O)[C@H](CCCNC(=N)N)NC(=O)[C@H](CCC(N)=O)NC(=O)[C@H](CC(C)C)NC(=O)[C@H](C)NC(=O)[C@H](C)NC(=O)CNC(=O)[C@H](CCC(=O)O)NC(=O)[C@H](CC(C)C)NC(=O)[C@H](CC(C)C)NC(=O)[C@H](CCCNC(=N)N)NC(=O)[C@H](CO)NC(=O)[C@H](Cc1ccc(O)cc1)NC(=O)[C@H](CC(=O)O)NC(=O)[C@H](CO)NC(=O)[C@@H](NC(=O)[C@H](Cc1ccccc1)NC(=O)[C@@H](NC(=O)CNC(=O)[C@H](CCC(=O)O)NC(=O)C(C)(C)NC(=O)[C@@H](N)Cc1c[nH]cn1)[C@@H](C)O)[C@@H](C)O)C(=O)N[C@@H](CCC(N)=O)C(=O)N[C@@H](Cc1c[nH]c2ccccc12)C(=O)N[C@@H](CC(C)C)C(=O)N[C@H](C(N)=O)C(C)C [compound 217] (H-H[Aib]EGTFTSDYSRLLEGAALQRFIQWLV-NH2) |  |  |  | 114
6 | CC[C@H](C)[C@H](NC(=O)[C@H](Cc1ccccc1)NC(=O)[C@H](CCCNC(=N)N)NC(=O)[C@H](CCC(N)=O)NC(=O)[C@H](CC(C)C)NC(=O)[C@H](C)NC(=O)[C@H](C)NC(=O)CNC(=O)[C@H](CCC(=O)O)NC(=O)[C@H](CC(C)C)NC(=O)[C@H](CC(C)C)NC(=O)[C@H](CCCNC(=N)N)NC(=O)[C@H](CO)NC(=O)[C@@H](NC(=O)[C@H](CC(=O)O)NC(=O)[C@H](CO)NC(=O)[C@@H](NC(=O)[C@H](Cc1ccccc1)NC(=O)[C@@H](NC(=O)CNC(=O)[C@H](CCC(=O)O)NC(=O)C(C)(C)NC(=O)[C@@H](N)Cc1c[nH]cn1)[C@@H](C)O)[C@@H](C)O)C(C)C)C(=O)N[C@@H](CCC(N)=O)C(=O)N[C@@H](Cc1c[nH]c2ccccc12)C(=O)N[C@@H](CC(C)C)C(=O)N[C@H](C(N)=O)C(C)C [compound 220] (H-H[Aib]EGTFTSDVSRLLEGAALQRFIQWLV-NH2) |  |  |  | 891
7 | CC[C@H](C)[C@H](NC(=O)[C@H](Cc1ccccc1)NC(=O)[C@H](CCCNC(=N)N)NC(=O)[C@H](CCC(N)=O)NC(=O)[C@H](CC(C)C)NC(=O)[C@H](C)NC(=O)[C@H](C)NC(=O)CNC(=O)[C@H](CCC(=O)O)NC(=O)[C@H](CC(C)C)NC(=O)[C@H](CC(C)C)NC(=O)[C@H](CCCNC(=N)N)NC(=O)[C@H](CO)NC(=O)[C@@H]1CCCN1C(=O)[C@H](CC(=O)O)NC(=O)[C@H](CO)NC(=O)[C@@H](NC(=O)[C@H](Cc1ccccc1)NC(=O)[C@@H](NC(=O)CNC(=O)[C@H](CCC(=O)O)NC(=O)C(C)(C)NC(=O)[C@@H](N)Cc1c[nH]cn1)[C@@H](C)O)[C@@H](C)O)C(=O)N[C@@H](CCC(N)=O)C(=O)N[C@@H](Cc1c[nH]c2ccccc12)C(=O)N[C@@H](CC(C)C)C(=O)N[C@H](C(N)=O)C(C)C [compound 221] (H-H[Aib]EGTFTSDPSRLLEGAALQRFIQWLV-NH2) |  |  |  | 2086
